Results from patent publication US7314858B2, “Retrocyclins: antiviral and antimicrobial peptides” (priority 2001, dated 2008).
“And” between values parts separate entries of the source, which are not always exact repeats. Identical values can stand only once. “Also recorded” adds a separate entry of the source. Where a SMILES comes first, the peptide text is derived from it. Bridges are numbered along the chain shown (N, C = ends). [ ]: non-standard residue; d: D form.

test system: HIV-1 strain JR-CSF; test: HIV-1 JR-CSF infection of CD4+ PBMC, p24 antigen ELISA; format: cell-based; details: JR-CSF (R5), peptide 10-20 μg/ml
Description: FIG. 5A-C. Anti-HIV-1 activity of retrocyclin. Two strains of HIV-1 and two types of human target cells were used. The IIIB strain is T-cell tropic (X4) and utilizes the CXCR4 co-receptor for entry; the JR-CSF strain is M-tropic (R5) and uses CCR5 for entry. PBMC signifies CD4^+-selected peripheral blood mononuclear cells. […] (A) Two concentrations of retrocyclin (2 μg/ml, 20 μg/ml), 20 μg/ml of the Rhesus circular defensin “RTD-1”, and 20 μg/ml of a horseshoe crab-derived peptide “T140”, reported to only prevent X4 infections, were tested in antiviral assays of against strain IIIB in H9 cells (n=2-6 per peptide; error bars indicate SEM). (B) To confirm our results with primary human cells, similar assays were performed utilizing IIIB virus and CD4^+ PBMC or (C) JR-CSF virus and CD4^+ PBMC. Peptides were not cytotoxic at indicated concentrations, measured by trypan blue exclusion. Average of duplicate experiments are reported for studies with PBMCs. Assay sensitivity=10 pg/ml.
(§1) Either HIV-1-permissive H9 cells were used as targets, or primary CD4^+ lymphocytes from HIV-1-seronegative donors generated from freshly purified peripheral blood mononuclear cells (PBMC) stimulated with a CD3-CD8 bispecific monoclonal antibody. After approximately 7 days, when 98% of these cells co-expressed CD3 and CD4, they were infected with HIV-1 with or without retrocyclin or other test peptide. These cells were maintained in RPMI containing 10% FCS supplemented with 2 mM glutamine, 100 U of penicillin/ml, 10 μg of streptomycin/ml, and 50 U of interleukin 2/ml (R10-50 media).
The p24 assay results shown in FIG. 9 are on a logarithmic scale. A horizontal reference line that passes through 100 on the ordinate scale corresponds to […] of p24 antigen. Results from 3 experiments (each performed with PBMC from a different donor) are shown.

| Compound | inhibition of HIV-1 replication (p24) |
| --- | --- |
| R13Y-Retrocyclin (cyclo(GICICICGRGICYCICGR); disulfide (positions not given here); ring closure inferred; not fully specified (bridges)) [RC-108] | lack of efficacy |

test system: human red blood cells; test: Hemagglutination of washed red blood cells in PBS; details: not given
Description: Hemagglutination was tested by adding the stated concentration of peptide to a well comprising red blood cells (shown in FIG. 22). When the RBC are agglutinated, they clump together and settle rapidly and form a diffuse circle covering much of the bottom of the well. In the absence of agglutination, they settle more slowly and form a compact red button in the center of the well.
Sequences of retrocyclin-related peptides that were synthesized and either tested for activity against HIV-1 (see FIGS. 21A and 21B) and/or for their ability to cause human red blood cells to hemagglutinate or both. NT signifies not tested. Linear sequences appear in the table, but all peptides were cyclic and contained three intramolecular disulfide bonds. Hemagglutination of washed human red blood cells was tested in PBS, at peptide concentrations of 50, 25, 12.5 6.25 and 3.12 μg/ml. The lowest concentrations that caused hemagglutination are shown. Peptide concentrations were determined by amino acid analysis or by AUC (area under the curve) RP-HPLC analysis with reference to amino-acid analyzed standards.

| Compound | Hemagglutination seen at a concentration of (lowest concentration that caused hemagglutination) [µg/mL] |
| --- | --- |
| R→K Retrocyclin-1 (cyclo(GICKCICGKGICKCICGR); disulfide (positions not given here); ring closure inferred; not fully specified (bridges)) [RC119] | 50 |

same assay, conditions: washed human red blood cells in PBS

| Compound | Hemagglutination seen at a concentration of (lowest concentration that caused hemagglutination) | hemagglutination compared with retrocyclin |
| --- | --- | --- |
| CC[C@@H](C)[C@H]1NC(=O)CNC(=O)[C@@H](CCCNC(=N)N)NC(=O)CNC(=O)[C@H]2CSSC[C@@H](NC1=O)C(=O)N[C@H](CCCNC(=N)N)C(=O)N[C@@H]1CSSC[C@@H](NC(=O)[C@@H](CCCNC(=N)N)NC(=O)[C@H]3CSSC[C@@H](NC(=O)[C@@H]([C@H](C)CC)NC1=O)C(=O)NCC(=O)N[C@H](CCCNC(=N)N)C(=O)NCC(=O)N[C@H]([C@H](C)CC)C(=O)N3)C(=O)N[C@H]([C@H](C)CC)C(=O)N2 [RC-112, enantio-retrocyclin] (cyclo(G[dI][dC][dR][dC][dI][dC]G[dR]G[dI][dC][dR][dC][dI][dC]G[dR]); disulfide 3-16, 5-14, 7-12) | 50 µg/mL | less hemagglutination than retrocyclin-1 or retrocyclin-2 |
| CC[C@H](C)[C@@H]1NC(=O)CNC(=O)[C@H](CCCNC(=N)N)NC(=O)CNC(=O)[C@@H]2CSSC[C@H](NC1=O)C(=O)N[C@@H](CCCNC(=N)N)C(=O)N[C@H]1CSSC[C@H](NC(=O)[C@H](CCCNC(=N)N)NC(=O)[C@@H]3CSSC[C@H](NC(=O)[C@H]([C@@H](C)CC)NC1=O)C(=O)NCC(=O)N[C@@H](CCCCN)C(=O)N[C@@H](CCCCN)C(=O)N[C@@H]([C@@H](C)CC)C(=O)N3)C(=O)N[C@@H]([C@@H](C)CC)C(=O)N2 [RC123B, Retrocyclin 2B] (cyclo(CGKKICRCICGRGICRCI); disulfide 1-6, 8-17, 10-15) | 6.25 µg/mL | – |
| CC[C@H](C)[C@@H]1NC(=O)CNC(=O)[C@H](CCCNC(=N)N)NC(=O)CNC(=O)[C@@H]2CSSC[C@H](NC1=O)C(=O)N[C@@H](CCCNC(=N)N)C(=O)N[C@H]1CSSC[C@H](NC(=O)[C@H](CCCNC(=N)N)NC(=O)[C@@H]3CSSC[C@H](NC(=O)[C@H]([C@@H](C)CC)NC1=O)C(=O)NCC(=O)N[C@@H](CCCCN)C(=O)N[C@@H](CCCNC(=N)N)C(=O)N[C@@H]([C@@H](C)CC)C(=O)N3)C(=O)N[C@@H]([C@@H](C)CC)C(=O)N2 [RC123A, Retrocyclin 2A] (cyclo(CGKRICRCICGRGICRCI); disulfide 1-6, 8-17, 10-15) | 50 µg/mL | less hemagglutination than retrocyclin-1 or retrocyclin-2 |
| CC[C@H](C)[C@@H]1NC(=O)CNC(=O)[C@H](CCCNC(=N)N)NC(=O)CNC(=O)[C@@H]2CSSC[C@H](NC1=O)C(=O)N[C@@H](CCCCN)C(=O)N[C@H]1CSSC[C@H](NC(=O)[C@H](CCCNC(=N)N)NC(=O)[C@@H]3CSSC[C@H](NC(=O)[C@H]([C@@H](C)CC)NC1=O)C(=O)NCC(=O)N[C@@H](CCCNC(=N)N)C(=O)N[C@@H](CCCNC(=N)N)C(=O)N[C@@H]([C@@H](C)CC)C(=O)N3)C(=O)N[C@@H]([C@@H](C)CC)C(=O)N2 [RC123E, Retrocyclin 2E] (cyclo(CGRGICKCICGRRICRCI); disulfide 1-6, 8-17, 10-15) | 25 µg/mL | – |
| CC[C@H](C)[C@@H]1NC(=O)CNC(=O)[C@H](CCCNC(=N)N)NC(=O)CNC(=O)[C@@H]2CSSC[C@H](NC1=O)C(=O)N[C@@H](CCCNC(=N)N)C(=O)N[C@H]1CSSC[C@H](NC(=O)[C@H](CCCNC(=N)N)NC(=O)[C@@H]3CSSC[C@H](NC(=O)[C@H]([C@@H](C)CC)NC1=O)C(=O)NCC(=O)N[C@@H](CCCNC(=N)N)C(=O)N[C@@H](CCCCN)C(=O)N[C@@H]([C@@H](C)CC)C(=O)N3)C(=O)N[C@@H]([C@@H](C)CC)C(=O)N2 [RC123C, Retrocyclin 2C] (cyclo(CGRGICRCICGRKICRCI); disulfide 1-6, 8-17, 10-15) | 50 µg/mL | less hemagglutination than retrocyclin-1 or retrocyclin-2 |
| CC[C@@H](C)[C@H]1NC(=O)CNC(=O)[C@@H](CCCCN)NC(=O)CNC(=O)[C@H]2CSSC[C@@H](NC1=O)C(=O)N[C@H](CCCNC(=N)N)C(=O)N[C@@H]1CSSC[C@@H](NC(=O)[C@@H](CCCNC(=N)N)NC(=O)[C@H]3CSSC[C@@H](NC(=O)[C@@H]([C@H](C)CC)NC1=O)C(=O)NCC(=O)N[C@H](CCCNC(=N)N)C(=O)NCC(=O)N[C@H]([C@H](C)CC)C(=O)N3)C(=O)N[C@H]([C@H](C)CC)C(=O)N2 [RC-113, enantio-RC-101] | 50 µg/mL | less hemagglutination than retrocyclin-1 or retrocyclin-2 |
| CC[C@H](C)[C@@H]1NC(=O)CNC(=O)[C@H](CCCCN)NC(=O)CNC(=O)[C@@H]2CSSC[C@H](NC1=O)C(=O)N[C@@H](CCCNC(=N)N)C(=O)N[C@H]1CSSC[C@H](NC(=O)[C@H](CCCNC(=N)N)NC(=O)[C@@H]3CSSC[C@H](NC(=O)[C@H](Cc4ccc(O)cc4)NC1=O)C(=O)NCC(=O)N[C@@H](CCCNC(=N)N)C(=O)NCC(=O)N[C@@H]([C@@H](C)CC)C(=O)N3)C(=O)N[C@@H]([C@@H](C)CC)C(=O)N2 [RC-114, RC-101/103 hybrid] (cyclo(CGKGICRCYCGRGICRCI); disulfide 1-6, 8-17, 10-15) | 200 µg/mL and > 150 µg/mL | much less hemagglutination than retrocyclin |
| CC[C@H](C)[C@@H]1NC(=O)CNC(=O)[C@H](CCCNC(=N)N)NC(=O)CNC(=O)[C@@H]2CSSC[C@H](NC1=O)C(=O)N[C@@H](CCCNC(=N)N)C(=O)N[C@H]1CSSC[C@H](NC(=O)[C@H](CCCCN)NC(=O)[C@@H]3CSSC[C@H](NC(=O)[C@H]([C@@H](C)CC)NC1=O)C(=O)NCC(=O)N[C@@H](CCCNC(=N)N)C(=O)N[C@@H](CCCNC(=N)N)C(=O)N[C@@H]([C@@H](C)CC)C(=O)N3)C(=O)N[C@@H]([C@@H](C)CC)C(=O)N2 [RC123D, Retrocyclin 2D] (cyclo(CGRGICRCICGRRICKCI); disulfide 1-6, 8-17, 10-15) | 50 µg/mL | – |

test system: HIV-1 strain IIIB; test: HIV-1 IIIB infection of CD4+ PBMC, p24 antigen ELISA; format: cell-based; details: CD4+ PBMC, IIIB (X4), peptide 10-20 μg/ml
Description: FIG. 5A-C. Anti-HIV-1 activity of retrocyclin. Two strains of HIV-1 and two types of human target cells were used. The IIIB strain is T-cell tropic (X4) and utilizes the CXCR4 co-receptor for entry; the JR-CSF strain is M-tropic (R5) and uses CCR5 for entry. PBMC signifies CD4^+-selected peripheral blood mononuclear cells. […] (A) Two concentrations of retrocyclin (2 μg/ml, 20 μg/ml), 20 μg/ml of the Rhesus circular defensin “RTD-1”, and 20 μg/ml of a horseshoe crab-derived peptide “T140”, reported to only prevent X4 infections, were tested in antiviral assays of against strain IIIB in H9 cells (n=2-6 per peptide; error bars indicate SEM). (B) To confirm our results with primary human cells, similar assays were performed utilizing IIIB virus and CD4^+ PBMC or (C) JR-CSF virus and CD4^+ PBMC. […] Average of duplicate experiments are reported for studies with PBMCs. Assay sensitivity=10 pg/ml.
as §1, with “After approximately 7 days, when 98% of these cells co-expressed CD3 and CD4, they were infected with HIV-1 with or without retrocyclin or other test peptide.” left out
Examining the effect of adding retrocyclin at various times pre- and post-HIV-1 infection. […] Primary CD4^+ PBMC were incubated with HIV-IIIB (FIG. 6) or HIV-JR-CSF for 3 hours in the presence or absence of 20 μg/ml retrocyclin. The cells were subsequently washed in media, and incubated an additional 9 days. Retrocyclin (20 μg/ml) was added back to some of the cultures at time points specified in FIG. 6 and infection was monitored by p24 ELISA as previously described. […]

| Compound | inhibition of HIV-1 replication (p24) |
| --- | --- |
| R13Y-Retrocyclin (cyclo(GICICICGRGICYCICGR); disulfide (positions not given here); ring closure inferred; not fully specified (bridges)) [RC-108] | either inactive or only modestly active; also recorded: lack of efficacy |
| I11Y-Retrocyclin (cyclo(GICRCICGRGYCRCICGR); disulfide (positions not given here); ring closure inferred; not fully specified (bridges)) [RC-105] | either inactive or only modestly active |
